Experimental data taken from patent US20220386606A1, “SPECIFICALLY SUBSTITUTED 3-PHENYL-5-SPIROCYCLOPENTYL-3-PYRROLIN-2-ONES AND THEIR USE AS HERBICIDES” (Bayer Aktiengesellschaft, priority 2019, published 2022).

Tests used:
ECHCG [1] = experiment: Pre-emergence herbicidal action against ECHCG; format: in vivo, Echinochloa crus-galli; conditions: 320 g/ha, scored visually after 3 weeks vs untreated controls
Method in brief: (§1)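 Weed and crop seeds sown in sandy loam, then WP or EC formulations sprayed onto covering soil pre-emergence as aqueous suspension or emulsion at 600 to 800 L/ha water with 0.2% wetting agent. Greenhouse-grown; visual damage scored after 3 weeks versus untreated controls, 0–100%.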

DIGSA [2] = experiment: Post-emergence herbicidal action against DIGSA; format: in vivo, Digitaria sanguinalis; conditions: 80 g/ha, visual assessment about 3 weeks after treatment vs untreated controls
Method in brief: (§2)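 Weeds were grown in sandy loam in a greenhouse and treated at the one-leaf stage, 2 to 3 weeks after sowing. WP or EC formulations were sprayed onto green parts at 600 to 800 l/ha water with 0.2% wetting agent. Visual % action versus untreated controls was scored after about 3 weeks.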

ALOMY [3] = experiment: Pre-emergence herbicidal action against ALOMY; format: in vivo, Alopecurus myosuroides; conditions: 320 g/ha, scored visually after 3 weeks vs untreated controls
Method in brief: as §1

SETVI [4] = experiment: Pre-emergence herbicidal action against SETVI; format: in vivo, Setaria viridis; conditions: 320 g/ha, scored visually after 3 weeks vs untreated controls
Method in brief: as §1

SETVI [5] = experiment: Post-emergence herbicidal action against SETVI; format: in vivo, Setaria viridis; conditions: 80 g/ha, visual assessment about 3 weeks after treatment vs untreated controls
Method in brief: as §2

AVEFA [6] = experiment: Pre-emergence herbicidal action against AVEFA; format: in vivo, Avena fatua; conditions: 320 g/ha, scored visually after 3 weeks vs untreated controls
Method in brief: as §1

ALOMY [7] = experiment: Post-emergence herbicidal action against ALOMY; format: in vivo, Alopecurus myosuroides; conditions: 80 g/ha, visual assessment after about 3 weeks
Method in brief: as §2

LOLRI [8] = experiment: Post-emergence herbicidal action against LOLRI; format: in vivo, Lolium rigidum; conditions: 80 g/ha, visual assessment about 3 weeks after treatment vs untreated controls
Method in brief: as §2

AVEFA [9] = experiment: Post-emergence herbicidal action against AVEFA; format: in vivo, Avena fatua; conditions: 80 g/ha, visual assessment after about 3 weeks
Method in brief: as §2

DIGSA [10] = experiment: Pre-emergence herbicidal action against DIGSA; format: in vivo, Digitaria sanguinalis; conditions: 320 g/ha, scored visually after 3 weeks vs untreated controls
Method in brief: as §1

ABUTH = experiment: Pre-emergence herbicidal action against ABUTH; format: in vivo, Abutylon threophrasti; conditions: 320 g/ha
From the text: (§3) Seeds of monocotyledonous and dicotyledonous weed plants and crop plants are laid out in sandy loam soil in wood-fiber pots and covered with soil. The compounds of the invention, formulated in the form of wettable powders (WP) or as emulsion concentrates (EC), are then applied to the surface of the covering soil as aqueous suspension or emulsion at a water application rate equating to 600 to 800 L/ha with addition of 0.2% wetting agent.
(§4) After the treatment, the pots are placed in a greenhouse and kept under good growth conditions for the trial plants. The damage to the test plants is scored visually after a test period of 3 weeks by comparison with untreated controls (herbicidal activity in percent (%): 100% activity=the plants have died, 0% activity=like control plants).

VERPE = experiment: Pre-emergence herbicidal action against VERPE; format: in vivo, Veronica persica; conditions: 320 g/ha
Method in brief: as §1

LOLRI [11] = experiment: Pre-emergence herbicidal action against LOLRI (Table 8, titled post-emergence at 320 g/ha); format: in vivo, Lolium rigidum; conditions: table stands in the pre-emergence section
Method in brief: as §1

VIOTR = experiment: Pre-emergence herbicidal action against VIOTR; format: in vivo, Viola tricolor; conditions: 320 g/ha
Method in brief: as §1

AMARE = experiment: Pre-emergence herbicidal action against AMARE; format: in vivo, Amaranthus retroflexus; conditions: 320 g/ha
Method in brief: as §1

ECHCG [12] = experiment: Post-emergence herbicidal action against ECHCG; format: in vivo, Echinochloa crus-galli; conditions: 80 g/ha, visual assessment about 3 weeks after treatment vs untreated controls
Method in brief: as §2

MATIN = experiment: Pre-emergence herbicidal action against MATIN; format: in vivo; conditions: 320 g/ha
Method in brief: as §1

POLCO = experiment: Pre-emergence herbicidal action against POLCO; format: in vivo, Polygonum convolvulus; conditions: 320 g/ha
From the text: as §3, §4

Row | SMILES | Pre-emergence action against ECHCG in % (ECHCG [1]) [%] | Post-emergence action against DIGSA in % (DIGSA [2]) [%] | Pre-emergence action against ALOMY in % (ALOMY [3]) [%] | Pre-emergence action against SETVI in % (SETVI [4]) [%] | Post-emergence action against SETVI in % (SETVI [5]) [%] | Pre-emergence action against AVEFA in % (AVEFA [6]) [%] | Post-emergence action against ALOMY in % (ALOMY [7]) [%] | Post-emergence action against LOLRI in % (LOLRI [8]) [%] | Post-emergence action against AVEFA in % (AVEFA [9]) [%] | Pre-emergence action against DIGSA in % (DIGSA [10]) [%] | Pre-emergence action against ABUTH in % (ABUTH) [%] | Pre-emergence action against VERPE in % (VERPE) [%] | Pre-emergence herbicidal action against LOLRI in % (LOLRI [11]) [%] | Pre-emergence action against VIOTR in % (VIOTR) [%] | Pre-emergence action against AMARE in % (AMARE) [%] | Post-emergence action against ECHCG in % (ECHCG [12]) [%] | Pre-emergence action against MATIN in % (MATIN) [%] | Pre-emergence action against POLCO in % (POLCO) [%]
1 | CC#Cc1cc(C)c(C2=C(O)C3(CCC(COCC)C3)NC2=O)c(Cl)c1 (centres unmarked) [Example I-17] | 100 | 100 | 100 | 100 | 100 | 100 | 100 | 100 | 90 | 100 | 90 | 90 | 100 | 100 | 100 | 100 | 90 | –
2 | CC#Cc1cc(C)c(C2=C(O)C3(CCC(COCCOC)C3)NC2=O)c(Cl)c1 (centres unmarked) [Example I-50] | 100 | – | 100 | 100 | 100 | 100 | 100 | 90 | 80 | 100 | 100 | – | 100 | 100 | 80 | 100 | 80 | 90
3 | CC#Cc1cc(Cl)c(C2=C(O)C3(CCC(COC)C3)NC2=O)c(OC)c1 (centres unmarked) [Example I-72] | 100 | 100 | 100 | 100 | 100 | 100 | 90 | 100 | 100 | 100 | 100 | – | 100 | 100 | – | 100 | 100 | –
4 | CC#Cc1cc(Cl)c(C2=C(O)C3(CCC(COC)C3)NC2=O)c(OC)c1 (centres unmarked) [Example I-73] | 100 | 100 | 100 | 100 | 100 | 100 | 100 | 100 | 100 | 100 | 100 | 90 | 100 | 100 | 100 | 100 | 90 | –
5 | CC#Cc1cc(C)c(C2=C(OC(=O)OCC)C3(CCC(COCCOC)C3)NC2=O)c(Cl)c1 (centres unmarked) [Example P-75] | 100 | 90 | 100 | 100 | 100 | 100 | 100 | 100 | 90 | 100 | 80 | 90 | 100 | 100 | 100 | 100 | 90 | 80
6 | CC#Cc1cc(Cl)c(C2=C(OC(=O)OCC)C3(CCC(COC)C3)NC2=O)c(OC)c1 (centres unmarked) [Example P-97] | 100 | 100 | 100 | 100 | 100 | 100 | 100 | 100 | 100 | 100 | 100 | 100 | 100 | 90 | 100 | 100 | 100 | –
7 | CC#Cc1cc(Cl)c(C2=C(OC(=O)OCC)C3(CCC(COC)C3)NC2=O)c(OC)c1 (centres unmarked) [Example P-98] | 100 | 100 | 100 | 100 | 100 | 100 | 100 | 100 | 90 | 100 | 90 | 100 | 100 | 100 | 100 | 100 | 90 | –
8 | C#CCOCC1CCC2(C1)NC(=O)C(c1c(C)cc(C#CC)cc1Cl)=C2OC(=O)OCC (centres unmarked) [Example P-100] | 100 | 90 | 100 | 100 | 100 | 90 | 100 | 100 | 80 | 100 | 80 | 90 | 100 | 100 | 100 | 100 | 90 | –
